# Data from patent publication US20260124268A1 (priority 2019, published 2026).
# “And” between values parts separate entries of the source, which are not always exact repeats. Equal entries are not always repeated. Where two headings read alike, the source gives them in different places.
# How the values were obtained:
# MRSA LA = assay: microbe, parasite or virus in culture; type: cell-based; conditions: Staphylococcus aureus, 24 h
# MRSA 81M = assay: microbe, parasite or virus in culture; type: cell-based; conditions: Staphylococcus aureus, 24 h
# [1] = Evaluation of litter score (percent caked litter); type: in vivo, broilers (male Cobb 500); conditions: SF: salinomycin 0.042% in feed; day 28
# Description: Evaluation of Litter Score. The litter from each pen was evaluated on day 28 of the trial. The litter was evaluated based on percentage of caked litter in the pen. The percentages were grouped from 0-19, 20-39, 40-59, 60-79, and 80-100%. The mid-value from the percentage range was used to calculate the average pen litter score.
# [2] = Growth performance and feed efficiency of challenged broilers; type: in vivo, broilers (male Cobb 500); conditions: SF: salinomycin 0.042% in feed; for Avg. daily gain / Weight gain: per bird
# Description: Bird Placement. The birds in this study were sourced from a commercial hatchery and were housed at the Colorado Quality Research facility (CQR). Healthy male Cobb 500 were used in this study and were vaccinated for Mareks at the hatchery and upon arrival at CQR the birds were vaccinated for Newcastle and Infectious Bronchitis and were randomly divided into five treatments. At placement 24 birds were placed into each pen with 11 replicates per treatment. On day eight birds were culled or replaced as needed to have 22 birds per pen with the pen being the statistical unit. The treatments were assigned to blocks and randomized within blocks. All birds in this experiment were discarded on site. All data was collected by the Colorado Quality Research (CQR) staff. The protocol MS-18-1 was approved by the CQR IACUC committee.
# Basal and Experimental Diets. The starter, grower, and basal diets were manufactured at the CQR feed mill using CQR formulated diets and described in Table 1. The feed was made and stored in bulk. The final experimental diet mixing, pelleting and crumbling was conducted at CQR using a 500-lb capacity vertical mixer (Seedburo, Golden Valley, MN), a 4000-lb capacity vertical mixer (Prater, Bolingbrook, IL) and/or a 14,000-lb horizontal mixer (H&S Manufacturing, Marshfield, WI) and a California pellet mill (CPM Co., Crawfordsville, IN). The feed was stored in 50-lb feed sacks until needed.
# The product was made fresh daily and administered in the water using a liquid medicator (Farmer Boy Ag, Myerstown, PA). A different stock solution was prepared for each treatment and the stock solutions were weighed each day to determine the amount of product consumed. The stock solutions were adjusted accordingly to ensure that the correct dose has been administered based on water consumption. The antibiotic control SF birds were administered Salinomycin (Sacox 60, Phibro Animal Health Corp., Teaneck, NJ) in the feed at 0.042% for the whole experimental period. […] If abnormal conditions or abnormal behavior is noted at any of the twice-daily observations they were documented and added to the study records. The maximum and minimum temperatures were recorded daily. The dead birds were collected and counted each day from each pen. The mortality was recorded on pen sheet and the cause of death was recorded. The pen mortality and the NE-associated mortality were calculated based on total mortality and as a percentage. The percentages were calculated based on the number of re-count birds on day 8. The birds were weighed on day 0, 17, 28, and 35 and the average daily gain was calculated for each of these time periods. The final pen weight was also measured. The amount of feed consumed was calculated from the starter feed (DO-17), the grower feed (D18-28), finisher feed (D29-35), and over the whole period (DO-35). The feed efficiency and adjusted feed efficiency were calculated to compare different growth periods. On day 21, 5 birds from each pen were randomly selected using a first caught method. The birds were sacrificed and evaluated for intestinal lesions to score the severity of the lesion scores using the scale in Table 4.
# [3] = system: Clostridium perfringens (CL-15, Type-A); type: in vivo, broilers (male Cobb 500); conditions: SF: salinomycin 0.042% in feed
# [4] = system: Clostridium perfringens (CL-15, Type-A); type: in vivo, broilers (male Cobb 500); conditions: SF: salinomycin 0.042% in feed, day 21
# [5] = Day 28-35, % of birds at day 8 re-count
smiles,measurement,setting,value
CO[C@@]1(NC(=O)Cc2cccs2)C(=O)N2C(C(=O)O)=C(COC(N)=O)CS[C@@H]21 [cefoxitin],MIC,MRSA LA,60 µg/mL
same,MIC,MRSA 81M,100 µg/mL
"CC[C@@H](C(=O)[C@@H](C)[C@@H](O)[C@H](C)[C@@H]1O[C@@H]([C@@H](CC)C(=O)O)CC[C@@H]1C)[C@H]1O[C@]2(C=C[C@@H](O)[C@]3(CC[C@@](C)([C@H]4CC[C@](O)(CC)[C@H](C)O4)O3)O2)[C@H](C)C[C@@H]1C [Salinomycin, salinomycin]",Average percent caked litter,[1],79%
same,Adj. F:G (adjusted feed-to-gain ratio),[2]; D 0-17,1.287
same,F:G (feed-to-gain ratio),[2]; D 0-17,1.320
same,Avg. daily gain,[2]; D 0-17,28.1 g/day
same,Weight gain,[2]; D 0-17,0.479 kg
same,Adj. F:G (adjusted feed-to-gain ratio),[2]; D 0-28,1.368
same,F:G (feed-to-gain ratio),[2]; D 0-28,1.656
same,Avg. daily gain,[2]; D 0-28,50.3 g/day
same,Weight gain,[2]; D 0-28,1.407 kg
same,Adj. F:G (adjusted feed-to-gain ratio),[2]; D 0-35,1.448
same,F:G (feed-to-gain ratio),[2]; D 0-35,1.666
same,Avg. daily gain,[2]; D 0-35,59.6 g/day
same,Weight gain,[2]; D 0-35,2.087 kg
same,Adj. F:G (adjusted feed-to-gain ratio),[2]; D17-28,1.421
same,Difference in weight gain compared to NTC,[2]; D17-28,−0.21%
same,F:G (feed-to-gain ratio),[2]; D17-28,1.947
same,Weight gain less than NTC birds,[2]; D17-28,2 grams
same,Avg. daily gain,[2]; D 17-28,84.4 g/day
same,Weight gain,[2]; D 17-28,0.928 kg
same,Adj. F:G (adjusted feed-to-gain ratio),[2]; D 28-35,1.654
same,F:G (feed-to-gain ratio),[2]; D 28-35,1.691
same,Avg. daily gain,[2]; D 28-35,97.1 g/day
same,Weight gain,[2]; D 28-35,0.680 kg
same,Increase in the harvest weight (final pen weight) compared to NTC,[2]; day 35,18.2%
same,Average pen weight,[2]; live pen weight at day 35,34.59 kg and 34.59a kg
same,Total Mortality,"[3]; Day 0-17, % of birds at day 8 re-count",(2.1%)
same,Total Mortality,"[3]; Day 0-17, birds dead",5
same,Total Mortality,"[3]; Day 0-35, % of birds at day 8 re-count",(5.4%)
same,NE Mortality,"[3]; Day 0-35, birds dead",5
same,Total Mortality,"[3]; Day 0-35, birds dead",13
same,Total Mortality,"[3]; Day 17-28, % of birds at day 8 re-count",(2.1%)
same,NE Mortality,"[3]; Day 17-28, birds dead",4
same,Total Mortality,"[3]; Day 17-28, birds dead",5
same,NE Mortality,[3]; [5],(0.4%)
same,Total Mortality,[3]; [5],(1.2%)
same,NE Mortality,"[3]; Day 28-35, birds dead",1
same,Total Mortality,"[3]; Day 28-35, birds dead",3
same,Reduction in lesion score compared to NTC,[4],50.6%
same,Average lesion score,[4]; scale 0-4,0.80
